Data taken from patent US20240300943A1, “NOVEL SALTS OF HETEROCYCLIC COMPOUND AS PROTEIN KINASE INHIBITOR AND USES THEREOF” (HK INNO.N CORPORATION, priority 2021, published 2024).

What was measured:
[1] = system: DNCB-induced animal model (NC/Nga mice); test: DNCB-induced atopic dermatitis model (PO); type: in vivo; conditions: twice a day for 28 days, FIGS. 17 to 19
Experimental: A DNCB-induced animal model was prepared in substantially the same manner as the DNCB model (topical) in Experimental Example 6, except that the phosphate compound was orally administered, and the phosphate compound obtained according to Example 3 was administered. The phosphate compound was orally administered a total of 56 times twice a day for 28 days, and an administration interval was eight hours. The dosage (10 mL/kg) was calculated and determined based on the body weight measured on the day of administration, and intragastrically administered through the mouth of mice using a 1 ml syringe and a feeding needle. The control group was dosed with 0.5% methylcellulose (0.5% MC).

TYK2 = TYK2 (Homo sapiens, UniProt P29597); test: ADP-Glo Tyk2 kinase assay; type: biochemical; conditions: read-out: IC50, In vitro enzyme TYK2
Experimental: 10 mM of Compound 1 was diluted in DMSO to prepare samples at five concentrations (5,000 nM, 500 nM, 50 nM, 5 nM, and 0.5 nM). 10 mM of ATP was diluted at 1/40 in 1× kinase buffer to make a preparation. 1 mg/mL of Poly (Glu4, Tyr1) peptide was used as a stock solution. 100 ng/μL of Tyk2 enzyme was diluted at ½ in 1× kinase buffer to make a preparation. 1 μL of ATP, 1 μL of Poly (Glu4, Tyr1) peptide, and 1 μL of Compound 1 prepared as above were mixed, after which 2 μL of Tyk2 enzyme was finally added and reacted at 30° C. for 40 minutes. At this time, a tube without […] enzyme was prepared for a blank and a tube without Compound 1 was prepared as a positive control group together (a final concentration of samples was 1,000 nM, 100 nM, 10 nM, 1 nM, and 0.1 nM).
Then, 5 μL of ADP-glo was added to each tube and reacted at 30° C. for 40 minutes, after which 10 μL of kinase detection reagent was added thereto and reacted at room temperature for 15 minutes. After 18 μL of the reactant was transferred to a 384 well plate, luminescence was measured using a plate reader.

TYK2, sequence (P29597 whole entry, species assumed): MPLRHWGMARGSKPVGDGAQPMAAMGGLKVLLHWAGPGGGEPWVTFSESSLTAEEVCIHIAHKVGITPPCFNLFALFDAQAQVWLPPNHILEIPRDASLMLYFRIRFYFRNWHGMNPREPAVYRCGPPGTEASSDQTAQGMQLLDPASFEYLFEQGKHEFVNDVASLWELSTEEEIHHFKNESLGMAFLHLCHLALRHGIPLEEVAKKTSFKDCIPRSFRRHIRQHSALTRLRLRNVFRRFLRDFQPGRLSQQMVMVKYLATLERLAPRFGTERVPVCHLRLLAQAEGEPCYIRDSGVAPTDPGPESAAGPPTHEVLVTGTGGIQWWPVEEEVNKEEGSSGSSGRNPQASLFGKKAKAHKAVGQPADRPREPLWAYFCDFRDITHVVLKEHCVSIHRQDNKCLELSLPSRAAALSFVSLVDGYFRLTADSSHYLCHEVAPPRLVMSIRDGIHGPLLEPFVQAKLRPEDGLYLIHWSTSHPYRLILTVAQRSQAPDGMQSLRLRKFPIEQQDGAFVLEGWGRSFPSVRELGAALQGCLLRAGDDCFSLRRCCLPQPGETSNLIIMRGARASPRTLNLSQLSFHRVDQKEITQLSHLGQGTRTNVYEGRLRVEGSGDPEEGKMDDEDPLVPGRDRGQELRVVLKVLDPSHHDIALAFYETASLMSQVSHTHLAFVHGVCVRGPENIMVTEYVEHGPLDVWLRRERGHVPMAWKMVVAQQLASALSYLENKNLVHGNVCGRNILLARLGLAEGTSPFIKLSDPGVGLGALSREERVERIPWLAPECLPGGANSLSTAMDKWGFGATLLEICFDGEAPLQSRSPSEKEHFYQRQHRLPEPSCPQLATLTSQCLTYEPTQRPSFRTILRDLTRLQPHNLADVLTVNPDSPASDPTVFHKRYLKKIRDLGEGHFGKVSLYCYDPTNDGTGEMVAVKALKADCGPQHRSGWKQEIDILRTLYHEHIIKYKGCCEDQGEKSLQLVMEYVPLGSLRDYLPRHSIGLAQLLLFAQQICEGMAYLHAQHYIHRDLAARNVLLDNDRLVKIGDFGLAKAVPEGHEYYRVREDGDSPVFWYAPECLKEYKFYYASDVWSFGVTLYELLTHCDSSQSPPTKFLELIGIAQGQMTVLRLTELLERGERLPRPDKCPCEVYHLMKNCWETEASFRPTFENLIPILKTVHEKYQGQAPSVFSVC

| IC50 (TYK2) [nM] | SMILES | Symptoms of atopic dermatitis [1] |
| --- | --- | --- |
| – | C[C@@H]1CN(C(=O)CC#N)CC=C1c1cc(NC(=O)C2CC2)nc2[nH]ccc12 [Example 3, (S)—N-(4-(1-(2-cyanoacetyl)-3-methyl-1,2,3,6-tetrahydropyridin-4-yl)-1H-pyrrolo[2,3-b]pyridin-6-yl)cyclopropanecarboxamide] | ameliorates symptoms of atopic dermatitis |
| 22 | C[C@@H]1CN(C(=O)CC#N)CC=C1c1cc(NC(=O)C2CC2)nc2[nH]ccc12 [Compound 1, (S)—N-(4-(1-(2-cyanoacetyl)-3-methyl-1,2,3,6-tetrahydropyridin-4-yl)-1H-pyrrolo[2,3-b]pyridin-6-yl)cyclopropanecarboxamide] | – |
